In patent publication US20260355171A1, “INHIBITORS AND USES THEREFOR” (priority 2022, published 2026):

Key:
[1] = Adverse reactions in pharmacokinetic study; format: in vivo, mouse; settings: 24-hour sampling period, IV 3 mg/kg and IP 10 mg/kg
Procedure: The pharmacokinetics of compound 22 was studied in non-fasted male C57BL/6 mice weighing 21.1-26.5 g. Mice had access to food and water ad libitum throughout the pre- and post-dose sampling period.
Compound 22 was dosed to mice by bolus injection into the lateral tail vein (2 mL/kg) for IV administration and by injection into the IP cavity (5 mL/kg) for IP administration. After dosing, blood samples were collected up to 24 h (n=3 mice per time point) with a maximum of three samples from each mouse via submandibular bleed (approximately 120 μL). No urine samples were collected as mice were housed in bedded cages. Blood was collected into polypropylene Eppendorf tubes containing heparin as anticoagulant. Once collected, blood samples were centrifuged immediately, supernatant plasma was removed, and stored at −80 °C until analysis by liquid chromatography-mass spectrometry (LC-MS). A summary of the bioanalytical method is included in Table 5.

[2] = Stability in brain and lung homogenates; format: in vitro ADME, mouse; settings: sample processing (15 min), EDTA/potassium fluoride
Procedure: Tissue: Pre-weighed tissue samples (brain and lung) were homogenised using a gentleMACS™ Octo Dissociator (Miltenyi Biotec, Macquarie Park, Australia) in buffer containing an EDTA/potassium fluoride solution (0.1 M/4 mg/mL) as a stabilisation cocktail to minimise the potential for ex vivo degradation (3 mL cocktail/g tissue). The tissue homogenate was briefly centrifuged (RCF=79×g) for 10 seconds to separate the foam layer before transferring an aliquot of the tissue homogenate (200 μL) to a fresh Eppendorf tube for sample extraction. Calibration standards were prepared by spiking blank brain and lung homogenate (200 μL) with the solution standards (10 μL) and the internal standard (10 μL). Study samples (for all tissue types) were similarly prepared, except that acetonitrile (10 μL) was added instead of solution standards to maintain the same volume. Protein precipitation was carried out by the addition of a 3-fold volume of acetonitrile, followed by vortex mixing and centrifugation (RCF=9391×g) for 3 min to recover the supernatant for analysis.

[3] = In vivo whole blood-to-plasma ratio; settings: IV 3 mg/kg, 1 h post dose, mouse blood, n=3; read-out: B/P ratio (whole blood-to-plasma)
Procedure: As part of the assessment of the IV pharmacokinetics, blood was collected from mice (n=3) at 1 h post dose for the purposes of determining the whole blood-to-plasma (B/P) ratio.
Blood was collected via cardiac puncture (whilst under gaseous isoflurane anaesthesia) into tubes containing heparin. The haematocrit was determined via centrifugation [13000×g for 4 min using a Clemets® Microhematocrit centrifuge (Clements, Rydalmere, Australia) and Safecap® Plain Self-sealing Mylar Wrapped capillary tubes (Safe-Tec Clinical Products LLC, Broomall, USA)], and values ranged from 32% to 36% for blood samples across the three mice.
Each blood aliquot (25 μL) was collected and matrix matched with an equivalent volume of blank plasma. The remainder of the blood sample was centrifuged and 1×25 μL plasma aliquot was collected and matrix matched with an equivalent volume of blank blood. Samples were frozen on dry ice and subsequently stored at −80 °C until analysis by LC-MS. The B/P ratio was calculated on the basis of the LC-MS response of compound 22 in blood and plasma following centrifugation of whole blood and the average B/P ratio (n=3 mice) is reported.

[4] = tested on: PHP.B hSyn-NSP5-V5 adeno-associated virus; test: Rota-rod motor testing; format: in vivo, mouse; settings: 10 mg/kg daily, three-day testing, 15-17 days post AAV, vs Paxlovid
Procedure: In vivo testing was performed on 5-month-old female C57BL/6 wildtype mice injected intravenously with PHP.B hSyn-NSP5-V5 adeno-associated virus (AAV) and treated daily with compound 22 (10 mg/kg), Paxlovid (nirmatrelvir/ritonavir) (10 mg/kg nirmatrelvir: 3.33 mg/kg ritonavir) or a vehicle control (n=10 per group).
Motor testing was performed on the Rota-rod five times daily over a three-day testing period as previously described (refer to Ke et al. (2015) Acta Neuropathol, 130: 661-678). Motor coordination was also assessed using the hanging wire test at 14 and 22 days post injection with the AAV, which assessed the time hanging upside down on a wire grid (refer to Chan et al. (2020) Am J Path, 190(8): 1713-1722). Anxiety, disinhibition and exploratory behaviour was assessed using the elevated plus maze (EPM) test as previously described (refer to Ke et al. (2015) Acta Neuropathol, 130: 661-678).

In the case of NC(=O)C1CCN(c2ncccc2CNCc2cccc3[nH]ccc23)CC1 [Compound 22], the “Adverse reactions or compound-related side effects” value [1] is reported as “no adverse reactions or compound-related side effects observed”, the “Stability in brain and lung homogenates” value [2] is reported as “stable” and the blood plasma ratio at 1 h [3] is reported as 1.4. The “Rota-rod average time of five daily trials” value [4] was “performed significantly better than Paxlovid-treated mice” and the “Rota-rod maximum time of five daily trials” value [4] was “performed significantly better than Paxlovid-treated mice”.
